{
  "source": "the supplement of paper PMC10307832",
  "experiment_in_all_cases": "relative viability (nuclei count vs DMSO), 5 days (fraction); higher = more cells survive",
  "key": {"NCI-H838": {"system": "NCI-H838", "how_it_was_run": "(§1)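 Relative viability is defined as nuclei in treated wells over nuclei in vehicle wells. Duplicate plates were run and medians reported. Lung cancer cell lines in 1536-well plates were dosed by pin tool one day after seeding, with one drug or with a fixed anchor-drug dose plus five library-drug doses (not always all listed) in √10 steps, and nuclei were counted after 5 days.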"}, "UMC-11": {"system": "UMC-11", "how_it_was_run": "as §1"}, "NCI-H1734": {"system": "NCI-H1734", "how_it_was_run": "as §1"}, "HARA": {"system": "HARA", "how_it_was_run": "as §1"}, "NCI-H1993": {"system": "NCI-H1993", "how_it_was_run": "as §1"}, "NCI-H1755": {"system": "NCI-H1755", "how_it_was_run": "as §1"}, "COR-L23": {"system": "COR-L23", "how_it_was_run": "as §1"}, "NCI-H1395": {"system": "NCI-H1395", "how_it_was_run": "as §1"}, "NCI-H2228": {"system": "NCI-H2228", "how_it_was_run": "as §1"}, "NCI-H2347": {"system": "NCI-H2347", "how_it_was_run": "as §1"}, "NCI-H2009": {"system": "NCI-H2009", "how_it_was_run": "as §1"}, "NCI-H2342": {"system": "NCI-H2342", "how_it_was_run": "as §1"}},
  "data": [
    {"smiles": "CC1(C)CCC(c2ccc(Cl)cc2)=C(CN2CCN(c3ccc(C(=O)NS(=O)(=O)c4ccc(N[C@H](CCN5CCOCC5)CSc5ccccc5)c(S(=O)(=O)C(F)(F)F)c4)cc3)CC2)C1", "note": "[Navitoclax] + Cc1cc(Nc2cc(N3CCN(C)CC3)nc(Sc3ccc(NC(=O)C4CC4)cc3)n2)n[nH]1 [Tozasertib] (partner 0.1 µM)", "values": [
      {"measurement": "relative viability", "setting": "NCI-H838; first compound 0.005 µM", "result": 0.295},
      {"measurement": "relative viability", "setting": "NCI-H838; first compound 0.01581 µM", "result": 0.328},
      {"measurement": "relative viability", "setting": "NCI-H838; first compound 0.05 µM", "result": 0.266},
      {"measurement": "relative viability", "setting": "NCI-H838; first compound 0.1581 µM", "result": 0.266},
      {"measurement": "relative viability", "setting": "NCI-H838; first compound 0.5 µM", "result": 0.292},
      {"measurement": "relative viability", "setting": "UMC-11; first compound 0.005 µM", "result": 0.196},
      {"measurement": "relative viability", "setting": "UMC-11; first compound 0.01581 µM", "result": 0.184},
      {"measurement": "relative viability", "setting": "UMC-11; first compound 0.05 µM", "result": 0.207},
      {"measurement": "relative viability", "setting": "UMC-11; first compound 0.1581 µM", "result": 0.2},
      {"measurement": "relative viability", "setting": "UMC-11; first compound 0.5 µM", "result": 0.188},
      {"measurement": "relative viability", "setting": "NCI-H1734; first compound 0.005 µM", "result": 0.253},
      {"measurement": "relative viability", "setting": "NCI-H1734; first compound 0.01581 µM", "result": 0.259},
      {"measurement": "relative viability", "setting": "NCI-H1734; first compound 0.1581 µM", "result": 0.201},
      {"measurement": "relative viability", "setting": "NCI-H1734; first compound 0.5 µM", "result": 0.194},
      {"measurement": "relative viability", "setting": "HARA; first compound 0.005 µM", "result": 0.0833},
      {"measurement": "relative viability", "setting": "HARA; first compound 0.01581 µM", "result": 0.113},
      {"measurement": "relative viability", "setting": "HARA; first compound 0.1581 µM", "result": 0.0955},
      {"measurement": "relative viability", "setting": "HARA; first compound 0.5 µM", "result": 0.0891},
      {"measurement": "relative viability", "setting": "NCI-H1993; first compound 0.005 µM", "result": 0.596},
      {"measurement": "relative viability", "setting": "NCI-H1993; first compound 0.01581 µM", "result": 0.666},
      {"measurement": "relative viability", "setting": "NCI-H1993; first compound 0.05 µM", "result": 0.597},
      {"measurement": "relative viability", "setting": "NCI-H1993; first compound 0.1581 µM", "result": 0.522},
      {"measurement": "relative viability", "setting": "NCI-H1993; first compound 0.5 µM", "result": 0.595},
      {"measurement": "relative viability", "setting": "NCI-H1755; first compound 0.005 µM", "result": 0.523},
      {"measurement": "relative viability", "setting": "NCI-H1755; first compound 0.01581 µM", "result": 0.599},
      {"measurement": "relative viability", "setting": "NCI-H1755; first compound 0.05 µM", "result": 0.441},
      {"measurement": "relative viability", "setting": "NCI-H1755; first compound 0.1581 µM", "result": 0.453},
      {"measurement": "relative viability", "setting": "NCI-H1755; first compound 0.5 µM", "result": 0.527},
      {"measurement": "relative viability", "setting": "COR-L23; first compound 0.005 µM", "result": 0.236},
      {"measurement": "relative viability", "setting": "COR-L23; first compound 0.01581 µM", "result": 0.197},
      {"measurement": "relative viability", "setting": "COR-L23; first compound 0.05 µM", "result": 0.172},
      {"measurement": "relative viability", "setting": "COR-L23; first compound 0.1581 µM", "result": 0.198},
      {"measurement": "relative viability", "setting": "COR-L23; first compound 0.5 µM", "result": 0.228},
      {"measurement": "relative viability", "setting": "NCI-H1395; first compound 0.005 µM", "result": 0.703},
      {"measurement": "relative viability", "setting": "NCI-H1395; first compound 0.01581 µM", "result": 0.738},
      {"measurement": "relative viability", "setting": "NCI-H1395; first compound 0.05 µM", "result": 0.757},
      {"measurement": "relative viability", "setting": "NCI-H1395; first compound 0.1581 µM", "result": 0.787},
      {"measurement": "relative viability", "setting": "NCI-H1395; first compound 0.5 µM", "result": 0.81},
      {"measurement": "relative viability", "setting": "NCI-H2228; first compound 0.005 µM", "result": 0.343},
      {"measurement": "relative viability", "setting": "NCI-H2228; first compound 0.01581 µM", "result": 0.296},
      {"measurement": "relative viability", "setting": "NCI-H2228; first compound 0.1581 µM", "result": 0.285},
      {"measurement": "relative viability", "setting": "NCI-H2228; first compound 0.5 µM", "result": 0.212},
      {"measurement": "relative viability", "setting": "NCI-H2347; first compound 0.005 µM", "result": 0.505},
      {"measurement": "relative viability", "setting": "NCI-H2347; first compound 0.01581 µM", "result": 0.516},
      {"measurement": "relative viability", "setting": "NCI-H2347; first compound 0.1581 µM", "result": 0.614},
      {"measurement": "relative viability", "setting": "NCI-H2347; first compound 0.5 µM", "result": 0.668},
      {"measurement": "relative viability", "setting": "NCI-H2009; first compound 0.005 µM", "result": 0.692},
      {"measurement": "relative viability", "setting": "NCI-H2009; first compound 0.01581 µM", "result": 0.79},
      {"measurement": "relative viability", "setting": "NCI-H2009; first compound 0.05 µM", "result": 0.713},
      {"measurement": "relative viability", "setting": "NCI-H2009; first compound 0.1581 µM", "result": 0.769},
      {"measurement": "relative viability", "setting": "NCI-H2009; first compound 0.5 µM", "result": 0.711},
      {"measurement": "relative viability", "setting": "NCI-H2342; first compound 0.005 µM", "result": 0.537},
      {"measurement": "relative viability", "setting": "NCI-H2342; first compound 0.01581 µM", "result": 0.471},
      {"measurement": "relative viability", "setting": "NCI-H2342; first compound 0.05 µM", "result": 0.558},
      {"measurement": "relative viability", "setting": "NCI-H2342; first compound 0.1581 µM", "result": 0.543}
    ]}
  ]
}
